# Measurements taken from patent US7867747B2, “Fibrinolytic metalloprotease and composition comprising the same” (priority 2006, dated 2011).
# Structures can show the parent of a compound that is named as a salt. Where two headings read alike, the source gives them in different places.
# Legend:
# Assay type in all cases: biochemical
# [1] = test system: zinc-dependent metalloprotease (purified recombinant enzyme)
# azocasein [2] = assay: Effects of temperature and pH on enzyme activity (azocasein assay)
# Description: (§1) Specifically, all assays were conducted in a 50 mM Tris-HCl (pH 7.0) buffer. Enzyme samples (100 μl) obtained in Example 2 were added to 100 μl of 1% (w/v) azocasein and the reaction mixture was incubated at 50° C. for 1 h and terminated by the addition of 400 μl of 10% (w/v) trichloroacetic acid. The precipitated protein was removed by centrifugation (12,000×g, 5 min), and the resulting supernatant was transferred to a clean tube containing 700 μl of 525 mM NaOH. Absorbance was measured at 442 nm.
# The optimal temperature for protease activity was examined in the buffer used in the standard assay at various temperatures. The values on the ordinate are shown as percentages of the enzyme activity (100%) observed at 50° C.
# The optimal pH for the protease activity was determined in various buffers at 50° C. The buffers used were sodium acetate buffers (open rectangles, pH 5.0-6.0), Tris-HCl buffers (open triangles, pH 6.0-8.0) and glycine-NaOH buffers (open circles, pH 8.0-9.0).
# The values on the ordinate are shown as percentages of the enzyme activity (100%) observed at pH 7.0. […] The optimal pH for the activity of protease was 7.0 (FIG. 3B).
# azocasein [3] = assay: Protease activity assay, release of acid-soluble material from azocasein; details: 50 mM Tris-HCl pH 7.0, 50° C., 1 h, by purification step
# Description: Protease activity was determined by measuring the release of acid-soluble material from azocasein (Sigma, USA) (Windle, H. J. P. et al., Infect. Immun. Vol. 65, pp 3132-3137, 1997).
# as §1
# One unit of protease activity was defined as an amount required for producing enough acid-soluble material from azocasein to yield absorbance of 0.1 at 442 nm, following 1 h incubation at 50° C.
# [4] = test system: fibrin (human fibrinogen clotted with human thrombin); assay: Fibrinolytic assay, hydrolysis of fibrin clots analysed by SDS-PAGE; details: 37° C.
# Description: Fibrinolytic activity was determined using the method described by Datta et al. (Datta, et al., Arch. Biochem. Biophys. Vol. 317, pp 365-373, 1995) with minor modifications.
# Specifically, 10 μl of 1% human fibrinogen (Sigma, USA) solution (prepared in a 20 mM Tris/HCl (pH 7.4) buffer) was added to human thrombin (0.05 NIH unit, Sigma, USA), and then allowed to stand for 1 h at room temperature. […] The hydrolysis of fibrin by the enzyme was analyzed by SDS-PAGE (FIG. 4). 5 μl each of reaction solutions was obtained at various time intervals and analyzed using an 11% SDS-PAGE gel.
# [5] = 1 mM, pre-incubation 25° C. 30 min, 50 mM Tris-HCl pH 7.0, no addition = 100
molecule,measurement,setting,value
"O=C(O)CN(CCOCCOCCN(CC(=O)O)CC(=O)O)CC(=O)O [EGTA, ethylene glycol-bis(2-aminoethylether)-N,N,N′,N′-tetraacetic acid]",effect on enzyme activity (in words),"[1]; 1 mM, as shown in Table 2",inhibited
same,Relative activity,[1]; [5],21%
[Cl-].[Cl-].[Mg+2] [MgCl2],effect on enzyme activity (in words),"[1]; 1 mM, as shown in Table 2",inhibited
same,Relative activity,[1]; [5],20%
"c1cnc2c(c1)ccc1cccnc12 [1,10-phenanthroline]",effect on enzyme activity (in words),"[1]; 1 mM, as shown in Table 2",inhibited
same,Relative activity,[1]; [5],55%
O=S(=O)([O-])[O-].[Fe+2] [FeSO4],Relative activity,[1]; [5],100%
[Cl-].[Cl-].[Co+2] [CoCl2],effect on enzyme activity (in words),[1],enhanced
same,Relative activity,[1]; 1 mM,280%
[Cl-].[Cl-].[Zn+2] [ZnCl2],effect on enzyme activity (in words),"[1]; 1 mM, as shown in Table 2",inhibited
same,Relative activity,[1]; [5],80%
"O=S(=O)(F)Cc1ccccc1 [PMSF, phenylmethylsulfonyl fluoride]",effect on enzyme activity (in words),"[1]; 1 mM, as shown in Table 2",no influence
same,Relative activity,[1]; [5],104%
"CCCCCCCCCCCCOS(=O)(=O)[O-].[Na+] [SDS, sodium dodecyl sulfate]",Relative activity,"[1]; 17 mM, pre-incubation 25° C. 30 min, 50 mM Tris-HCl pH 7.0, no addition = 100",9%
same,effect on enzyme activity (in words),[1]; 0.05% SDS,easily denatured
"O=C(O)CN(CCN(CC(=O)O)CC(=O)O)CC(=O)O [EDTA, ethylenediaminetetraacetic acid]",effect on enzyme activity (in words),[1],inhibited
same,Relative activity,[1]; pH 7,27%
O=S(=O)([O-])[O-].[Cu+2] [CuSO4],Relative activity,[1]; [5],100%
"N=C(N)N [Guanidine hydrochloride, guanidine hydrochloride]",effect on enzyme activity (in words),[1]; 0.5 M,strongly inhibited
same,Relative activity,"[1]; 500 mM, pre-incubation 25° C. 30 min, 50 mM Tris-HCl pH 7.0, no addition = 100",22%
[Ca+2].[Cl-].[Cl-] [CaCl2],effect on enzyme activity (in words),"[1]; 1 mM, as shown in Table 2",enhanced
same,Relative activity,[1]; [5],200%
O=S(=O)([O-])[O-].[Ni+2] [NiSO4],effect on enzyme activity (in words),"[1]; 1 mM, as shown in Table 2",enhanced
same,Relative activity,[1]; [5],140%
"recombinant protease: Zinc-dependent fibrinolytic metalloprotease, 359 amino acids (SEQ ID NO:2), about 39 kDa, from deep-sea sediment metagenome, expressed in E. coli, purified by chitin affinity … (protein, Protein sequence of coding metalloprotease ES6349) MEPEPIKTCTVLENPGYQPIHAPTDVSPQPVLAAMEAVPVPTPPPTVDAVMLFRKKWRDGKILRVHFMDGDPDVHRKVEEVAHTWSRHANVRFKFVDDPAADIRISFTQPGSWSYLGTDALRIARSQSTMNFGWLTPRSPDSEYNRVVIHEFGHALGLVHEHQNPDNGIPWNKPAVYEYYSGPPNNWSKEQVDTNLFQQYSEDQVRFTGFDRESIMLYPIPNEFTVGDFEVGWNRDLSADDKEFIGRMYPKPANELIVDDPPRASEISRYGEIDTYTFLVTQKGSYRIETDGRTDLVMLLYGPEDDTKLIAADDDSGRRLNPRITEELDWGKYTVRLQHFSQRQTGKYAVGVYRDDAAE",Enzyme activity compared with the enzyme activity (100%) at 50° C.,azocasein [2]; at 40° C.,26%
same,Enzyme activity compared with the enzyme activity (100%) at 50° C.,azocasein [2]; at 60° C.,18%
same,optimal temperature for the activity of the protease,"azocasein [2]; standard assay buffer, 1 h",50 °C
same,optimal pH for the activity of protease,azocasein [2]; various buffers at 50° C.,7.0
same,Specific activity,azocasein [3],"76,000 U/mg"
same,Specific activity,azocasein [3]; listed as Affinity chromatography,"3,400 U/mg"
same,hydrolysis of the β-chain of fibrin,[4]; after 30 min,partially hydrolyzed
same,hydrolysis of the α-chain of fibrin,[4]; after 1 h,completely hydrolyzed
same,hydrolysis of the γ-γ-chain of fibrin,[4]; after 1 h,completely hydrolyzed
same,hydrolysis of the β-chain of fibrin,[4]; after 2 h,not completely hydrolyzed
same,hydrolysis of the β-chain of fibrin,[4]; after 24 h (data not shown),not completely hydrolyzed
